Results reported in patent publication US5244661A, “Process for producing a polyene antibiotic” (Ajinomoto Company, Inc., priority 1989, dated 1993).
In brackets after ≈: the same amount, converted by molar mass.

How the values were obtained:
[1] = test system: Saccharomyces ubran ATCC 9080; test: minimum growth inhibitory concentration (MIC) against Saccharomyces ubran ATCC 9080; type: cell-based; conditions: Table 3
[2] = test system: Candida albicans ATCC 10231; test: minimum growth inhibitory concentration (MIC) against Candida albicans ATCC 10231; type: cell-based

| MIC [1] | MIC ([2]; Table 3) | minimum growth inhibitory concentration (MIC) ([2]; Example 7) | SMILES |
| --- | --- | --- | --- |
| 0.04 µg/mL (≈ 0.0359 µM) | 0.04 µg/mL (≈ 0.0359 µM) |  | CC1/C=C/C=C/C=C/C=C/C=C/C=C/C=C/C(O[C@H]2O[C@@H](C)[C@H](O)[C@@H](N)[C@H]2O)CC2OC(O)(CC(O)CC(O)CC(O)CC(O)CC(=O)CC(O)CC(=O)OC1C(C)CCC(O)CC(=O)c1ccc(N)cc1)CC(O)C2C(=O)O (stereo partly drawn) [Partricin B, partricin B] |
|  |  | 0.52 µg/mL | COC(=O)C1C(O)CC2(O)CC(O)CC(O)CC(O)CC(O)CC(=O)CC(O)CC(=O)OC(C(C)CCC(O)CC(=O)c3ccc(N)cc3)C(C)/C=C/C=C/C=C/C=C/C=C/C=C/C=C/C(O[C@H]3O[C@@H](C)[C@H](O)[C@@H](N)[C@H]3O)CC1O2 (stereo partly drawn) [partricin B methyl ester] |
